Molecules are shown by their SMILES.

The test addresses T1, Prolyl 4-hydroxylase subunit alpha-1 (Gallus gallus, UniProt P16924).
T1 sequence (P16924 whole entry): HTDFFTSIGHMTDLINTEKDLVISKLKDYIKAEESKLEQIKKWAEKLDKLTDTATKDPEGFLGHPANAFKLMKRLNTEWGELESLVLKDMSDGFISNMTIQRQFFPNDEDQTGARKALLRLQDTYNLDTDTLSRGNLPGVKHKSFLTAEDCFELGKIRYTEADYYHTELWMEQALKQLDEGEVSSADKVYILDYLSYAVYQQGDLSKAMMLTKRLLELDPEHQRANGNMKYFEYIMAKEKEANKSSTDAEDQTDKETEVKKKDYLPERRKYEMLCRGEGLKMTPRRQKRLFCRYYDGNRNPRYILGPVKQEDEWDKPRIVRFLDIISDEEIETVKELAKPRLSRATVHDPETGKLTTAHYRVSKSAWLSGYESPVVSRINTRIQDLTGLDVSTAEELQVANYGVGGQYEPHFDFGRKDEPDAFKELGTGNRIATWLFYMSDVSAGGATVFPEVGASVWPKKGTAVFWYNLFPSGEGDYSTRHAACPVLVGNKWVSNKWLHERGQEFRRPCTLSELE
Description: Inhibition Assay. From the text:
Inhibition assay using procollagen-prolin, 2-oxoglutarate 4-dioxygenase.
In the case of `O=C(O)c1cccc(O)c1O` [2,3-Dihydroxybenzoate, IV], the affinity, expressed as Ki, was 70 µM.

Take `O=C1OC(C(O)CO)C(O)C1O` (stereo unspecified) [5-(1,2-Dihydroxy-ethyl)-3,4-dihydroxy-dihydro-furan-2-one]: the inhibitory constant (Ki) – broadly, a dissociation constant, usually derived from enzyme kinetics or from competition with a known ligand – was > 20000 µM.

For the molecule `O=C(O)Cc1ccc(O)c(O)c1` [SMR000326727], the inhibition constant (Ki) worked out at 9 µM.

In turn, `O=C(O)c1ccccc1O` [salicylic acid] gave a Ki of 2300 µM.

Turning to `O=C(O)c1c(O)cccc1O` [2,6-Dihydroxybenzoate, VII], the inhibition constant Ki was determined as 1100 µM. Against the preceding molecule, the Ki is about 2.1-fold lower.

Consider `O=C(O)c1cccc(O)c1`, for which the inhibition constant (Ki) was > 20000 µM.

`O=C(O)c1cc(O)ccc1O` [2,5-Dihydroxybenzoate, VI] returned a Ki of 1400 µM.

Regarding `O=C(O)c1cc(O)cc(O)c1` [3,5-dihydroxybenzoic acid], the Ki was found to be 9000 µM. This Ki is about 6.4-fold higher than that of the molecule before.

On to `O=C(O)Cc1ccccc1` [Phenylacetate, XIX], for which the Ki is > 20000 µM.

For `O=C(O)c1cc(O)c(O)c(O)c1` [Gallic Acid, F], the inhibitory constant (Ki) amounted to 30 µM. This lies in the double-digit micromolar range.

In turn, `Oc1cccc(O)c1` showed a Ki of 10200 µM.

Molecule `Oc1ccccc1O` [1,2-Dihydroxybenzene, XI] registered a Ki of 25 µM.

On to `O=C(O)C(O)c1ccc(O)c(O)c1` (stereo unspecified) [3,4-Dihydroxymandelate, XVI], for which the affinity, expressed as Ki, was 9 µM. Compared with the last molecule, the Ki is about 2.8-fold lower.

For the molecule `O=C(O)/C=C/c1ccc(O)c(O)c1` [3,4-Dihydroxycinnamate, XVII], the inhibition constant (Ki) is 18 µM.

`O=C(O)[C@H](O)c1ccccc1` [(+)-Mandelate, XXI]: the Ki is > 20000 µM.

Consider `O=C(O)c1ccc(O)c(O)c1` [Protocatechuic acid (M1)], for which affinity was put at a Ki of 5 µM. In other words, the single-digit micromolar range.

In turn, `O=C(O)c1ccc(O)cc1` [4-Hydroxybenzoate, III] came in with an inhibition constant Ki of 3200 µM. This Ki lies about 640-fold higher than the previous one.

`Oc1ccc(O)cc1` returned a Ki of 14000 µM. Compared with the last molecule, the Ki is about 4.4-fold higher.

On to `O=C(O)c1ccc(O)cc1O` [beta-Resorcylic acid], for which the inhibitory constant (Ki) was 530 µM.

In turn, `Oc1cccc(O)c1O` registered a Ki of 30 µM. Against the preceding molecule, the Ki is about 18-fold lower.

In turn, `O=C(O)CCc1ccc(O)c(O)c1` [3-(3,4-dihydroxyphenyl)propanoic acid] had an inhibitory constant (Ki) of 13 µM. This Ki is about 2.3-fold lower than that of the molecule before.

For the origin of these results see BindingDB's records for PubMed 3011801 (University of Oulu, 1986).
